Reference: US5574043A, “Certain [1,2,5-thiadiazol-4-yl]-1-azabicyclo [3.2.1]octane derivatives and their pharmaceutical uses” (Novo Nordisk A/S, priority 1995, dated 1996)
Where a name gives a salt, the structure may show the parent alone.

Molecular target: muscarinic acetylcholine receptors
Assay: Inhibition of specific binding of 3H-Oxotremorine-M (OXO BINDING) in vitro, rat cortex
Parameters: species or system male Wistar rats
Conditions: rat cortex homogenate, 3H-Oxotremorine 1.0 nM, 30 min at 25° C., pH 7.4
Procedure, shortened: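 Washed male Wistar rat cortex membranes in 20 mM Hepes pH 7.4 incubated 30 min at 25° C with 1.0 nM ³H-Oxotremorine-M (final) and test compound; nonspecific binding with 1 μg/ml arecoline. Filtration and scintillation counting; IC50 (ng/ml) for specific binding calculated assuming mass-action kinetics.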

Row | Compound | Inhibition in vitro OXO BINDING IC50
1 | Clc1nsnc1C12CCCN(CC1)C2.O=C(O)C(=O)O (stereo not drawn) [Compound 67, 5-(3-Chloro-1,2,5-thiadiazol-4-yl)-1-azabicyclo[3.2.1]octane oxalate] | 0.43 ng/mL
2 | c1ccc(CSc2nsnc2[C@H]2CN3CCC[C@@H]2C3)cc1 (relative stereo) [Compound 88, Endo-6-(3-benzylthio-1,2,5-thiadiazol-4-yl)-1-azabicyclo[3.2.1]octane oxalate] | 6.1 ng/mL
3 | CCCCSc1nsnc1[C@H]1CN2CC[C@H]1C2 (relative stereo) [Compound 42, Exo-3-(3-butylthio-1,2,5-thiadiazol-4-yl)-1-azabicyclo[2.2.1]heptane oxalate] | 0.35 ng/mL
4 | c1ccc(CCCSc2nsnc2[C@H]2CN3CCC[C@H]2C3)cc1 (relative stereo) [Compound 83, Exo-6-(3-(3-phenylpropylthio)-1,2,5-thiadiazol-4-yl)-1-azabicyclo[3.2.1]octane oxalate] | 0.43 ng/mL
5 | N#Cc1ccc(CSc2nsnc2[C@H]2CN3CCC[C@@H]2C3)cc1 (relative stereo) [Compound 28, Endo-6-(3-(4-cyanobenzylthio)-1,2,5-thiadiazol-4-yl)-1-azabicyclo[3.2.1]octane oxalate] | 1.9 ng/mL
6 | CCCSc1nsnc1C1CN2CCC1CC2.O=C(O)C(=O)O (stereo not drawn) [Compound 53, 3-(3-Propylthio-1,2,5-thiadiazol-4-yl)-1-azabicyclo[2.2.2]octane oxalate] | 0.3 ng/mL
7 | c1ccc(OCCSc2nsnc2[C@H]2CN3CCC[C@H]2C3)cc1 (relative stereo) [Compound 133, Exo-6-(3-(2-phenoxyethylthio)-1,2,5-thiadiazol-4-yl)-1-azabicyclo[3.2.1]octane oxalate] | 0.45 ng/mL
8 | CCCSc1nsnc1[C@@H]1CN2CCC[C@@H]1C2 (single isomer, unassigned) [Compound 114, (-)-Exo-6-(3-propylthio-1,2,5-thiadiazol-4-yl)-1-azabicyclo[3.2.1]octane (-) D-tartrate] | 0.15 ng/mL
9 | Clc1nsnc1C1CN2CCC1CC2.O=C(O)C(=O)O (stereo not drawn) [Compound 8, 3-(3-Chloro-1,2,5-thiadiazol-4-yl)-1-azabicyclo[2.2.2]octane oxalate] | 5.2 ng/mL
10 | c1ccc(CCCSc2nsnc2[C@H]2CN3CCC[C@@H]2C3)cc1 (relative stereo) [Compound 27, Endo-6-(3-(3-phenylpropylthio)-1,2,5-thiadiazol-4-yl)-1-azabicyclo[3.2.1]octane oxalate] | 17 ng/mL
11 | N#CCSc1nsnc1[C@H]1CN2CCC[C@H]1C2 (relative stereo) [Compound 79, Exo-6-(3-cyanomethylthio-1,2,5-thiadiazol-4-yl)-1-azabicyclo[3.2.1]octane oxalate] | 0.50 ng/mL
12 | CCCCOc1nsnc1[C@@H]1CN2CCC[C@@H]1C2 (relative stereo) [Compound 120, Exo-6-(3-butoxy-1,2,5-thiadiazol-4-yl)-1-azabicyclo[3.2.1]octane oxalate] | 0.28 ng/mL
13 | CC(C)CCCSc1nsnc1[C@H]1CN2CCC[C@H]1C2 (relative stereo) [Compound 76, Exo-6-(3-isohexylthio-1,2,5-thiadiazol-4-yl)-1-azabicyclo[3.2.1]octane oxalate] | 2.6 ng/mL
14 | CC(C)CCCOc1nsnc1[C@@H]1CN2CCC[C@@H]1C2 (relative stereo) [Compound 123, Exo-6-(3-isohexyloxy-1,2,5-thiadiazol-4-yl)-1-azabicyclo[3.2.1]octane dioxalate] | 0.47 ng/mL
15 | CCCCCCSc1nsnc1[C@H]1CN2CCC[C@@H]1C2 (relative stereo) [Compound 17, Endo-6-(3-hexylthio-1,2,5-thiadiazol-4-yl)-1-azabicyclo[3.2.1]octane oxalate] | 3.2 ng/mL
16 | c1ccc(CSc2nsnc2[C@H]2CN3CCC[C@H]2C3)cc1 (relative stereo) [Compound 134, Exo-6-(3-benzylthio-1,2,5-thiadiazol-4-yl)-1-azabicyclo[3.2.1]octane oxalate] | 0.47 ng/mL
17 | Cc1nnc(SCCCCSc2nsnc2C2CN3CCC2CC3)s1 (stereo not drawn) [Compound 107, oxalate] | 0.3 ng/mL
18 | CCSc1nsnc1[C@H]1CN2CCC[C@H]1C2 (relative stereo) [Compound 32, Exo-6-(3-ethylthio-1,2,5-thiadiazol-4-yl)-1-azabicyclo[3.2.1]octane oxalate] | 0.45 ng/mL

Row | Compound | Inhibition in vitro OXO BINDING IC50
19 | ClC1=C(c2nsnc2Cl)C2CCC(C1)N2.O=C(O)C(=O)O (stereo not drawn) [Compound 47, 3-Chloro-2-(3-chloro-1,2,5-thiadiazol-4-yl)-8-azabicyclo[3.2.1]oct-2-ene oxalate] | > 300 ng/mL
20 | C=CCCCCSc1nsnc1[C@H]1CN2CCC[C@@H]1C2 (relative stereo) [Compound 18, Endo-6-(3-(5-hexenylthio)-1,2,5-thiadiazol-4-yl)-1-azabicyclo[3.2.1]octane oxalate] | 7.5 ng/mL
21 | CCCCSc1nsnc1[C@@H]1CN2CC[C@H]1C2 (relative stereo) [Compound 36, Endo-3-(3-butylthio-1,2,5-thiadiazol-4-yl)-1-azabicyclo[2.2.1]heptane fumarate] | 0.82 ng/mL
22 | Clc1nsnc1[C@H]1CN2CCC[C@@H]1C2 (relative stereo) [Compound 16, Endo-6-(3-chloro-1,2,5-thiadiazol-4-yl)-1-azabicyclo[3.2.1]octane-oxalate] | 67 ng/mL
23 | O=C(O)/C=C/C(=O)O.c1ccc(OCCSc2nsnc2C2CN3CCC2CC3)cc1 (stereo not drawn) [Compound 102, 3-(3-(2-Phenoxyethylthio)-1,2,5-thiadiazol-4-yl)-1-azabicyclo[2.2.2]octane fumarate] | 1.52 ng/mL
24 | CC(C)CCOc1nsnc1C1CN2CCC1CC2.O=C(O)C(=O)O (stereo not drawn) [Compound 51, 3-(3-Isopentyloxy-1,2,5-thiadiazol-4-yl)-1-azabicyclo[2.2.2]octane oxalate] | 0.89 ng/mL
25 | CCCCSc1nsnc1C1CN2CCC1CC2.O=C(O)C(O)C(O)C(=O)O (single isomer, unassigned) [Compound 56, (+) 3-(3-Butylthio-1,2,5-thiadiazol-4-yl)-1-azabicyclo[2.2.2]octane (-)D-tartrate] | 0.14 ng/mL
26 | CCCCCCOc1nsnc1C1(O)CN2CCC1CC2.O=C(O)C(=O)O (stereo not drawn) [Compound 7, 3-(3-Hexyloxy-1,2,5-thiadiazol-4-yl)-3-hydroxy-1-azabicyclo[2.2.2]octane oxalate] | 13 ng/mL
27 | N#Cc1ccc(CSc2nsnc2[C@H]2CN3CCC[C@H]2C3)cc1 (relative stereo) [Compound 82, Exo-6-(3-(4-cyanobenzylthio)-1,2,5-thiadiazol-4-yl)-1-azabicyclo[3.2.1]octane oxalate] | 0.40 ng/mL
28 | CC(C)CSc1nsnc1C1CN2CCC1CC2.O=C(O)/C=C/C(=O)O (stereo not drawn) [Compound 101, 3-(3-Isobutylthio-1,2,5-thiadiazol-4-yl)-1-azabicyclo[2.2.2]octane fumarate] | 0.75 ng/mL
29 | Clc1nsnc1C1(Cl)CN2CCC1CC2.O=C(O)C(=O)O (stereo not drawn) [Compound 1, 3-Chloro-3-(3-chloro-1,2,5-thiadiazol-4-yl)-1-azabicyclo[2.2.2]-octane oxalate] | 156 ng/mL
30 | CCCCCCSc1nsnc1[C@H]1CN2CC[C@H]1C2 (relative stereo) [Compound 39, Exo-3-(3-hexylthio-1,2,5-thiadiazol-4-yl)-1-azabicyclo[2.2.1]heptane oxalate] | 0.52 ng/mL
31 | N#CCCCCSc1nsnc1[C@H]1CN2CCC[C@@H]1C2 (relative stereo) [Compound 92, Endo-6-(3-(4-cyanobutylthio)-1,2,5-thiadiazol-4-yl)-1-azabicyclo[3.2.1]octane oxalate] | 1.5 ng/mL
32 | CCCSc1nsnc1[C@@H]1CN2CCC[C@@H]1C2 (single isomer, unassigned) [Compound 113, (+)-Exo-6-(3-propylthio-1,2,5-thiadiazol-4-yl)-1-azabicyclo[3.2.1]octane (+) L-tartrate] | 0.26 ng/mL
33 | N#Cc1ccc(CSc2nsnc2C2CN3CCC2CC3)cc1.O=C(O)C(=O)O (stereo not drawn) [Compound 45, 3-(3-(4-Cyanobenzylthio)-1,2,5-thiadiazol-4-yl)-1-azabicyclo[2.2.2]octane oxalate] | 1.6 ng/mL
34 | CSc1nsnc1[C@H]1CN2CCC[C@H]1C2 (relative stereo) [Compound 74, Exo-6-(3-methylthio-1,2,5-thiadiazol-4-yl)-1-azabicyclo[3.2.1]octane oxalate] | 0.45 ng/mL
35 | CCCCCCSc1nsnc1[C@H]1CN2CCC[C@H]1C2 (relative stereo) [Compound 29, Exo-6-(3-hexylthio-1,2,5-thiadiazol-4-yl)-1-azabicyclo[3.2.1]octane oxalate] | 0.39 ng/mL
36 | O=C(O)/C=C/C(=O)O.c1csc(CCCOc2nsnc2C2CN3CCC2CC3)c1 (stereo not drawn) [Compound 110, 3-(3-(3-(2-Thienyl)propoxy)-1,2,5-thiadiazol-4-yl)-1-azabicyclo[2.2.2]octane fumarate] | 1.1 ng/mL
